Experimental data published in publication PMC4885879, “Genomic Rearrangements and Functional Diversification of lecA and lecB Lectin-Coding Regions Impacting the Efficacy of Glycomimetics Directed against Pseudomonas aeruginosa” (Frontiers in Microbiology, 2016).

Legend:
LecBPA7 [1] = molecular target: T1, LecBPA7 (Pseudomonas paraeruginosa, UniProt A6V267); experiment: ITC; format: binding; set-up: gene PSPA7_1769; recombinant LecBPA7
LecBPA7 [2] = molecular target: T1, LecBPA7; experiment: X-ray crystal structure ([…] Å) and ITC; format: binding; set-up: gene PSPA7_1769; recombinant LecBPA7, 114 amino acids, tetramer

T1 sequence (A6V267 entry or part of it): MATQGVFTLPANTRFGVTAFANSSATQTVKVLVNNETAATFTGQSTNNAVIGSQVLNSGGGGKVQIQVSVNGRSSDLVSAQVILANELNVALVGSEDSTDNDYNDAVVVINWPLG

Compound | Kd (LecBPA7 [1]) | Kd (LecBPA7 [2])
CO[C@@H]1O[C@@H](C)[C@@H](O)[C@@H](O)[C@@H]1O [FucOMe, methyl α-L-fucoside] | 2.2 µM | –
CC(=O)N[C@H]1[C@H](O[C@H]2[C@@H](O)[C@@H](CO)OC(O)[C@@H]2O)O[C@H](CO)[C@@H](O[C@@H]2O[C@@H](C)[C@@H](O)[C@@H](O)[C@@H]2O)[C@@H]1O[C@@H]1O[C@H](CO)[C@H](O)[C@H](O)[C@H]1O (stereo partly drawn) [Lewis^a tetrasaccharide] | – | 2010 nM
CO[C@H]1O[C@H](CO)[C@@H](O)[C@H](O)[C@@H]1O [ManOMe, methyl α-D-mannoside] | 73 µM | –
